Entries after “also recorded” stand apart in the source; their conditions may differ.
How the values were obtained:
Thrombin [1] = assay: Recombinant human Thrombin at 5U/ml
Neutrophil elastase = Neutrophil elastase at 30 nM; conditions: human, up to 12 min
MMP = assay: incubation with MMP (which MMP is not given); conditions: up to 10 min
[2] = healthy (homogenised) human lung tissue
MMP-2 [3] = assay: Recombinant human catalytic domain MMP-2 at 30nM
[4] = human tissue homogenate (healthy and fibrotic lung tissue)
MMP-13 [5] = assay: Recombinant human catalytic domain MMP-13 at 30nM
plasmin [6] = assay: plasmin
thrombin [7] = assay: thrombin (Sigma Aldrich) (5 U ml^–1) in MMP buffer (10 mM CaCl2, Tris-HCl, NaCl, pH 7.5); conditions: human, up to 60 min
[8] = excised human carotid (atherosclerotic) plaque, sliced in half lengthwise, in a well with probe solution; conditions: up to 60 min
Factor Xa = Factor Xa (Sigma Aldrich) (500 nM) in MMP buffer; conditions: up to 60 min
MMP-9 + Thrombin = MMP-9 + Thrombin together in MMP buffer; conditions: human, up to 60 min
Plasmin [9] = assay: Plasmin (Sigma Aldrich) (30 nM) in MMP buffer; conditions: up to 60 min
[10] = platelet rich plasma (PRP) collected from the LPS murine model
MMP-2 [11] = assay: recombinant MMP enzymes (active domains), 30 nM, in MMP buffer; conditions: up to 60 min
MMP-13 [12] = assay: as above; conditions: up to 60 min
[13] = lavage fluid collected from the LPS murine model
MMP-9 = assay: recombinant MMP enzymes (active domains), 30 nM, in MMP buffer; conditions: human, up to 60 min

In the case of -P-Cha-G-M-Y-G-, the not cleaved (Thrombin [1]) is reported as “Thrombin did not cleave any of the sequences” and the not cleaved (Neutrophil elastase) is reported as “remained intact”.

For -P-Cha-G-M-Y(Me)-G-, the not cleaved (Thrombin [1]) was “Thrombin did not cleave any of the sequences” and the not cleaved (Neutrophil elastase) was “remained intact”.

In the case of -P-F-G-L-K-ßA-, the not cleaved (Thrombin [1]) is reported as “Thrombin did not cleave any of the sequences” and the not cleaved (Neutrophil elastase) is reported as “remained intact”.

For “–NleWPRGWR(D)L– | –PFG(D)NleKβA– | –K-PEG2–”, the not cleaved (MMP) was “not activated by their target enzymes”.

With -P-Cha-G-M-W-G- the not cleaved (Thrombin [1]) was “Thrombin did not cleave any of the sequences” and the not cleaved (Neutrophil elastase) was “remained intact”.

With -P-Cha-G-M-F-G- the not cleaved (Thrombin [1]) was “Thrombin did not cleave any of the sequences” and the not cleaved (Neutrophil elastase) was “remained intact”.

In the case of “PFGNleKA attached to the hydrophilic tail -[PEG2-(D)K]3-NH2”, the not cleaved [2] is reported as “good solubility and stability as confirmed by MALDI TOF MS and HPLC analysis”.

For -P-F-G-Nle-K-ßA-, the not cleaved (Thrombin [1]) was “not cleaved with Thrombin”, the cleaved bond (MMP-2 [3]) was “G-Nle” and the not cleaved (Neutrophil elastase) was “stable to Elastase”. The cleaved bond [4] was “G-Nle”, the not cleaved (neutrophil lysate) was “not cleaved with Neutrophil lysate” and the cleaved bond (MMP-13 [5]) was “G-Nle”. For the same substance, the not cleaved (plasmin [6]) was “totally plasmin resistant”.

In the case of -P-Cha-G-M-K-G-, the not cleaved (Thrombin [1]) is reported as “Thrombin did not cleave any of the sequences” and the not cleaved (Neutrophil elastase) is reported as “remained intact”.

In the case of -P-F-G-M-K-ßA-, the not cleaved (Thrombin [1]) is reported as “Thrombin did not cleave any of the sequences” and the not cleaved (Neutrophil elastase) is reported as “remained intact”.

With -G-P-K-G-L-K-G- the not cleaved (Thrombin [1]) was “not cleaved with Thrombin”, the cleaved bond (MMP-2 [3]) was “G-L” and the not cleaved (Neutrophil elastase) was “stable to Elastase”. The cleaved bond [4] was “G-L”, the not cleaved (neutrophil lysate) was “not cleaved with Neutrophil lysate” and the cleaved bond (MMP-13 [5]) was “G-L”. For the same substance, the cleaved bond (plasmin [6]) was “K-G”.

With -P-F-G-Ile-K-ßA- the not cleaved (Thrombin [1]) was “Thrombin did not cleave any of the sequences” and the cleaved bond (Neutrophil elastase) was “I-K”.

With “–NleWP(D)RGWR(D)L– | –PFGNleKβA– | –K-PEG2–” the not cleaved (thrombin [7]) was “not activated by their target enzymes”.

In the case of “–NleWPRGWR(D)L– | –PFGNleKβA– | –K-PEG2–”, the cleaved bond [8] is reported as “Arg-Gly; also recorded: Gly-Nle”, the not cleaved (Factor Xa) is reported as “completely plasmin and Factor Xa resistant” and the cleaved bond (MMP-9 + Thrombin) is reported as “Arg-Gly; also recorded: Gly-Nle”. For the same substance, the not cleaved (Plasmin [9]) was “completely plasmin and Factor Xa resistant”, the not cleaved [10] was “not cleaved by murine proteolytic (MMP and Thrombin) enzymes” and the cleaved bond (MMP-2 [11]) was “Gly-Nle”. The cleaved bond (MMP-13 [12]) was “Gly-Nle”, the not cleaved [13] was “not cleaved by murine proteolytic (MMP and Thrombin) enzymes” and the cleaved bond (MMP-9) was “Gly-Nle”. The cleaved bond (thrombin [7]) was “Arg-Gly”.

In the case of -G-P-K-G-Ile-K-G-, the not cleaved (Thrombin [1]) is reported as “Thrombin did not cleave any of the sequences” and the cleaved bond (Neutrophil elastase) is reported as “I-K”.

In the case of -P-Cha-G-M-H-G-, the not cleaved (Thrombin [1]) is reported as “Thrombin did not cleave any of the sequences” and the not cleaved (Neutrophil elastase) is reported as “remained intact”.

With -P-Cha-G-M-K-ßA-G- the not cleaved (Thrombin [1]) was “Thrombin did not cleave any of the sequences” and the not cleaved (Neutrophil elastase) was “remained intact”.

— paper PMC6238727 (2018)
